Experimental data: patent publication US10633332B2, “Guanidine compounds for removal of oxyanions from aqueous solutions and for carbon dioxide capture” (UT-Battelle, LLC, priority 2010, dated 2020)
Several values for one entry are separate records, joined by “and”; a condition that tells them apart may be missing. Identical values can stand only once. Like-named read-outs stand apart in the source and are kept apart here. Marks after values point to notes of the source that are not given here. Blank lines part the entries; values can stand above or below the compound they belong to.

What was measured:
[1] = Sulfate separation from seawater (35S radiotracer, β liquid scintillation counting); conditions: for % Sulfate Removed / Sulfate Left: initial sulfate 30 mmol/L; for Amount of SO4^2− removed / [SO4^2−] left: initial sulfate 30 mM
Method: The seawater used in the experiment was collected from the gulf stream in the Atlantic Ocean. Prior to use, the water was pre-filtered to remove suspended particulates and small organisms. […] The sulfate concentration in seawater was estimated to be about 30 mM by titration with BaCl2. […] A volume of 0.75 mL of each of these solutions was pipetted into a 2 mL Eppendorf microcentrifuge tube, and 0.75 mL of seawater pre-spiked with the ^35S radiotracer was added. The resulting solution mixtures were mixed for 24 hours using a rotating wheel set at 60 rpm in a temperature-controlled air-box set at 25±0.2° C. […] The radiolabeled ^35S radiotracer is a β emitter, thereby allowing determination of the sulfate concentration of a solution spiked with a known amount of Na2^35SO4 by β liquid scintillation counting. The seawater solutions were pre-spiked with […] of the ^35S radiotracer, as above. […] The volume of the spike solution was determined by factoring in the original activity of the solution and correcting for the short half-life of the ^35S radiotracer. The Na2^35SO4 solution had completed 3.8 half-lives before use in this experiment. […] The resulting mixtures were vigorously shaken to allow for complete dissolution and dispersion of the salt solutions. The samples were then placed on the analyzer and counted for 30 minutes after allowing 60 minutes for dark-adaption.

[2] = Sulfate removal from a calcium sulfate suspension (CaSO4 dissolution cycle); conditions: overnight, room temperature, pH 6-7, powder X-ray diffraction
Method: An example of sulfate removal from a calcium sulfate suspension is shown schematically in FIG. 5. In the first step, the initial CaSO4 solid is treated with an aqueous chloride salt of the compound that results in crystallization of the guanidinium sulfate salt and release of the calcium ions in solution, as soluble CaCl2. In the second step, the insoluble guanidinium sulfate salt is treated with sodium hydroxide base to neutralize the guanidinium cations and release the sulfate ions in solution, as soluble Na2SO4. The resulting solid guanidine compound is then recycled and converted back into guanidinium chloride with aqueous HCl, so it can be reused in another CaSO4 dissolution cycle. Thus, the entire process is done in water (no organic solvents used), and the only chemicals consumed in the overall process are NaOH and HCl, resulting in two aqueous waste streams consisting of calcium chloride and sodium sulfate. The unique aspect of this invention is the employment of a crystallization process to achieve dissolution of CaSO4. Also, this approach is based on anion chelation by guanidinium groups rather than the more common metal chelation, which may be prone to interference from other metals in solution. […] Finally, the recovered BBIG was converted back into the chloride salt by treatment with aqueous hydrochloric acid and recycled for another CaSO4 dissolution cycle.

[3] = Aqueous solubility of BBIG salts (gravimetric / UV spectroscopy); conditions: 25 °C, water, thermodynamic from solid
Method: The solubility of BBIG-Cl was determined gravimetrically. A saturated solution of BBIG-Cl was obtained by placing an excess of the salt in a 15 mL polypropylene centrifuge tube and adding 2 mL of deionized water (milli-Q). […] One mL of the saturated salt solution was then pipetted into a pre-weighed glass vial containing a magnetic stir bar. The water was then removed under reduced pressure and gentle heating (˜50° C.) while stirring. The resulting solid was left under vacuum overnight to ensure complete removal of the water, prior to weighing the vial.
These solutions were then diluted to ensure the concentrations of the BBIG di-cation were in the concentration range of the calibration curve.

[4] = Carbonate/bicarbonate CO2 capture cycle: crystallization from 1 M NaHCO3
Description: Finally, thermal decomposition of PyBIGH2(CO3)(H2O)4 regenerates the PyBIG compound and releases the CO2. […] The resulting mixture was filtered, and the separated crystalline solid was confirmed by PXRD and FTIR to be PyBIGH2(CO3)(H2O)4. […] The entire carbonate separation cycle was run three times, with observed yields for PyBIGH2(CO3)(H2O)4 crystallization of 99.0±0.4%, 97.2±0.6%, and 91.4±0.4%, corresponding to the first, second, and third cycle, respectively. The regeneration of the PyBIG compound was nearly quantitative in each cycle.

[5] = Differential scanning calorimetry of CO2 release; type: physicochemical; conditions: DSC, all peaks between 80 and 140° C. integrated
Description: Although the CO2 desorption could theoretically be achieved by running reactions 1-6 in reverse order according to the principle of microscopic reversibility, in reality it would not be feasible as reaction 4 is practically irreversible. Such an approach would also defeat the purpose of avoiding heating the aqueous sorbent. Instead, once the loading is complete, the crystalline PyBIGH2(CO3)(H2O)4 is removed from solution and heated in the solid state to release the CO2 gas and the water vapors. Given the completely different conditions involved, such a gas-solid process must have different energetics compared to the gas-liquid-solid process involved in CO2 absorption. In order to determine the enthalpy of CO2 release, differential scanning calorimetry (DSC) was employed. DSC is a common technique used in thermal analysis of solids. […] As the enthalpy of vaporization for water is 40.65 kJ/mol, more than 90% of the enthalpy of desorption is used for water evaporation. This represents a significant energy penalty that must be accounted for, and which encourages the use of renewable sources of energy, such as concentrated solar power (vide infra), to make the overall DAC process energy more sustainable.

[6] = CO2 release and PyBIG regeneration using concentrated solar power; type: physicochemical; conditions: for Δm: 38 mg sample
Method: Carbon dioxide release and regeneration of PyBIG using concentrated solar power: The CO2 release from the PyBIGH2(CO3)(H2O)4 crystals was carried out by solar heating with a solar oven. The oven consists of a vacuum-insulated borosilicate tube placed in the focal point of two adjustable parabolic reflectors. The temperature inside the tube was monitored with a thermocouple. The PyBIGH2(CO3)(H2O)4 samples (0.038 g, 0.1 mmol) were loaded in 1 mL glass vials, which were placed inside the oven tube. The solar oven was then placed in the full sun and oriented to capture the maximum amount of sunlight. The temperature was ramped to the targeted values of 120° C., 140° C., 150° C., or 160° C. as fast as possible (typically within 3 to 10 minutes), then held within ±2° C. by intermittently moving the oven out of the sun, or/and closing the reflectors. The samples were subsequently removed from the tube, allowed to cool to room temperature, and weighed to determine their mass loss. The resulting yellow solids were analyzed by FTIR to confirm the disappearance of the carbonate and water peaks.
However, considering this transformation is highly endothermic, the possibility of using concentrated solar power to render the process more energy sustainable was explored. For the initial small-scale proof of concept, a solar oven (FIG. 6) was used to heat the PyBIGH2(CO3)(H2O)4 samples (38 mg, 0.1 mmol) at four different temperatures ranging between 120 and 160° C., monitoring the extent of the reactions by the samples' weight loss (Table 7 below). FTIR analyses also corroborated the release of CO2, most evidently noticeable by the disappearance of the strong peak at 1361 cm^−1 corresponding to the stretching mode of the carbonate anion.

[7] = aqueous, ˜10 mM
[8] = Thermodynamic analysis: reaction enthalpies (variable-temperature solubility, pKa, van't Hoff)
[9] = cited from earlier work; for reaction rate of CO2 with the amino acid: 25° C., expected
[10] = literature value; cited from earlier work

SMILES: Cl.Cl.N=C(N)N/N=C/c1cccc(/C=N/NC(=N)N)n1 [Compound 2]
- degree of separation of sulfate from seawater [1]: very high degrees of separation
- % Sulfate Removed ([1]; compound 15 mmol/L): 48.41% and 48.57%
- Sulfate Left ([1]; compound 15 mmol/L): 1487 mg/L and 1482 mg/L
- % Sulfate Removed ([1]; compound 30 mmol/L): 93.28% and 94.41%
- Sulfate Left ([1]; compound 30 mmol/L): 194 mg/L and 161 mg/L
- % Sulfate Removed ([1]; compound 33 mmol/L): 99.72% and 99.60%
- Sulfate Left ([1]; compound 33 mmol/L): 8 mg/L and 12 mg/L
- % Sulfate Removed ([1]; compound 45 mmol/L): 99.94%
- Sulfate Left ([1]; compound 45 mmol/L): 1.7 mg/L
- % Sulfate Removed ([1]; compound 60 mmol/L): 99.95%
- Sulfate Left ([1]; compound 60 mmol/L): 1.5 mg/L

SMILES: Cl.Cl.N=C(N)N/N=C/c1ccc(/C=N/NC(=N)N)cc1 [Compound 1]
- degree of separation of sulfate from seawater [1]: very high degrees of separation
- Amount of SO4^2− removed ([1]; 1 equiv BBIG): 88%
- [SO4^2−] left ([1]; 1 equiv BBIG): 3.5 mM
- Amount of SO4^2− removed ([1]; 1.1 equiv BBIG): 95%
- [SO4^2−] left ([1]; 1.1 equiv BBIG): 1.6 mM
- Amount of SO4^2− removed ([1]; 1.5 equiv BBIG): 99%
- [SO4^2−] left ([1]; 1.5 equiv BBIG): 0.3 mM
- Amount of SO4^2− removed ([1]; 2 equiv BBIG): 99%
- [SO4^2−] left ([1]; 2 equiv BBIG): 0.3 mM
- % Sulfate Removed ([1]; compound 15 mmol/L): 40.8% and 41.8%
- Sulfate Left ([1]; compound 15 mmol/L): 1706 mg/L and 1676 mg/L
- % Sulfate Removed ([1]; compound 30 mmol/L): 88.7% and 88.0%
- Sulfate Left ([1]; compound 30 mmol/L): 326 mg/L and 347 mg/L
- % Sulfate Removed ([1]; compound 33 mmol/L): 95.6% and 93.6%
- Sulfate Left ([1]; compound 33 mmol/L): 128 mg/L and 185 mg/L
- % Sulfate Removed ([1]; compound 45 mmol/L): 99.0% and 98.9%
- Sulfate Left ([1]; compound 45 mmol/L): 28 mg/L and 30 mg/L
- % Sulfate Removed ([1]; compound 60 mmol/L): 98.9%
- Sulfate Left ([1]; compound 60 mmol/L): 31 mg/L
- conversion of solid CaSO4(H2O)2 into crystalline BBIG-SO4(H2O)2 [2]: complete conversion
- solubility at 48 h [3]: 63 mM

- overall enthalpy of desorption [5]: 53.3 ± 0.96 kcal/mol
- Δm/mi ([6]; 120° C., 30 min): −31.6%
- Δm ([6]; 120° C., 30 min): -12 mg
- Δm/mi ([6]; 140° C., 10 min): −34.2%
- Δm ([6]; 140° C., 10 min): -13 mg
- Δm/mi ([6]; 150° C., 5 min): −31.6%
- Δm ([6]; 150° C., 5 min): -12 mg
- Δm/mi ([6]; 160° C., 2 min): −36.8%
- Δm ([6]; 160° C., 2 min): -14 mg
- temperature of heating at which CO2 is released (heating the carbonate crystals): 80-120 °C
- decomposition completion (isothermal TGA at 80° C., after 300 minutes): 77%
- time to complete loss of carbon dioxide and water (isothermal TGA at 100° C.): 150 min
- time to complete loss of carbon dioxide and water (isothermal TGA at 120° C.): 60 min
- mass loss (oven, one hour at 120° C.): 34.3%
- mass loss (temperature-ramped TGA, between 65 and 140° C.): 35.2%
SMILES: N=C(N)NN=Cc1cccc(C=NNC(=N)N)n1.O.O.O.O.O=C(O)O [PyBIGH2(CO3)(H2O)4]
- yield of PyBIGH2(CO3)(H2O)4 crystallization ([4]; first cycle, 1 M NaHCO3, room temperature, four hours): 99.0±0.4%
- yield of PyBIGH2(CO3)(H2O)4 crystallization ([4]; second cycle): 97.2±0.6%
- yield of PyBIGH2(CO3)(H2O)4 crystallization ([4]; third cycle): 91.4±0.4%

SMILES: N=C(N)N/N=C/c1cccc(/C=N/NC(=N)N)n1 [PyBIG]
- no decomposition of the regenerated compound up to (TGA-MS): 190 °C
- pH of saturated solution [7]: about 10
- ΔH reaction 1 (PyBIG dissolution) ([8]; This study): 10.2 kcal/mol
- ΔH reaction 6 (PyBIGH2(CO3)(H2O)4 crystallization) ([8]; This study): -11.2 kcal/mol
- ΔH reaction 2 (PyBIG protonation by water) ([8]; This study, composed from protonation enthalpies and ionization of water): 43.6^a kJ/mol
- overall enthalpy of CO2 absorption ([8]; sum of reactions 1-6): -16.9 kcal/mol

SMILES: CNCC(=O)O [Sarcosine, sarcosine]
- reaction rate of CO2 with the amino acid [9]: 18.6 kM/s

SMILES: [Na+].[OH-] [NaOH]
- flux of CO2 absorbed from air ([9]; 1 M solution): around 30 μmol/m2/s

SMILES: NCC(=O)O [Glycine, glycine]
- reaction rate of CO2 with the amino acid [9]: 13.9 kM/s
- pKa [10]: 9.5
